Test: recombinant barcode read abundance after kanamycin selection (control-corrected) (log10(CPM+1)); higher = more efficient recombination; sequences stand for … in AGTGCAGAGAAAATCGGCCAGTTTTCTCTGCCTGCAGTCCGCATGCCGT…AGATTTATGCAGCGGACTGCCTTTCTCCCAAAGTGATAAACCGGACAGTATCATGGACCGGTTTTCCCGGTAATCCGTATTTGCAAGGTTGGTTTCACT; site = the 11-nt target
In short: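 IS621 bridge RNA target-binding loops were paired with targets in a pooled library tested in E. coli. After co-electroporation with a donor plasmid, cells were plated in two replicates on chloramphenicol/ampicillin LB agar (control) and on chloramphenicol/ampicillin/kanamycin carrying 0.1 mM IPTG. Barcodes at recombinant junctions were counted as counts per million, averaged and control-corrected to give recombination efficiency. Values are log10(CPM+1).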
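Further: IS621 recombinase and bridge RNA in Escherichia coli cells.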

Sequence | recombinant barcode read abundance (log10)
CACTATCCTTGGGTTCTAACCTGTTGCGG (site CACTAGCCTCC) | 0.0909
CACTATCCTTGGGTTCTAACCTGTTGCGG (site CACTATCCTCC) | 1.5
CACTCACCTTGGGTTCTAACCTGTTGCGG (site CACTCACCTCC) | 1.38
CACTCACCTTGGGTTCTAACCTGTTGCGG (site CACTTAGCTCC) | 0.0338
CACTCTCCTTGGGTTCTAACCTGTTGCCT (site CACTCTCCTAG) | 0.226
CACTCTCCTTGGGTTCTAACCTGTTGCCT (site CACTCTCCTAT) | 0.00896
CACTTAGCTTGGGTTCTAACCTGTTGCGG (site CACTCACCTCC) | 0.0176
CACTTAGCTTGGGTTCTAACCTGTTGCGG (site CACTTAGCTCC) | 1.28
CACTTCCCTTGGGTTCTAACCTGTTGCCT (site CACTTCCCTAA) | 0.191
CACTTCCCTTGGGTTCTAACCTGTTGCCT (site CACTTCCCTAC) | 0.0709
CACTTCCCTTGGGTTCTAACCTGTTGCCT (site CACTTCCCTAG) | 0.924
CACTTCCCTTGGGTTCTAACCTGTTGCCT (site CACTTCCCTAT) | 0.0298
CACTTCCCTTGGGTTCTAACCTGTTGCTT (site CACTTCCCTAA) | 1.04
CACTTCCCTTGGGTTCTAACCTGTTGCTT (site CACTTCCCTAC) | 0.0814
CACTTCCCTTGGGTTCTAACCTGTTGCTT (site CACTTCCCTAG) | 0.442
CACTTCCCTTGGGTTCTAACCTGTTGCTT (site CACTTCCCTAT) | 0.443
CACTTGTCTTGGGTTCTAACCTGTTGCCA (site CACTTGTCTTG) | 0.0547
CACTTGTCTTGGGTTCTAACCTGTTGCCA (site TATTTGTCTTG) | 0.0129
CAGAAGTCTTGGGTTCTAACCTGTTGCTT (site ACACGTGCTTC) | 0.0609
CAGAAGTCTTGGGTTCTAACCTGTTGCTT (site CAGAAGTCTAA) | 1.44
CAGAATACTTGGGTTCTAACCTGTTGCGT (site CAAAATTCTAC) | 0.215
CAGAATACTTGGGTTCTAACCTGTTGCGT (site CAGAATACTAC) | 2.24

Sequence | recombinant barcode read abundance (log10)
CAGAGAGCTTGGGTTCTAACCTGTTGCCT (site CAGAGAGCTAG) | 1.2
CAGAGAGCTTGGGTTCTAACCTGTTGCCT (site CCGAGAGCTAG) | 0.0663
CAGAGAGCTTGGGTTCTAACCTGTTGCCT (site CGGAGAGCTAG) | 0.0978
CAGAGAGCTTGGGTTCTAACCTGTTGCCT (site CTGAGAGCTAG) | 0.132
CAGAGCTCTTGGGTTCTAACCTGTTGCCT (site CAGAGCTCTAG) | 1.43
CAGAGCTCTTGGGTTCTAACCTGTTGCCT (site CAGAGGTCTAG) | 0.309
CAGAGTCCTTGGGTTCTAACCTGTTGCCT (site CAGAGTCCTAG) | 1.26
CAGAGTCCTTGGGTTCTAACCTGTTGCCT (site CAGAGTCCTAT) | 0.3
CAGATCCCTTGGGTTCTAACCTGTTGCCT (site CAGATCCCTAG) | 1.91
CAGATCCCTTGGGTTCTAACCTGTTGCCT (site CCGATCCCTAG) | 0.0889
CAGATCCCTTGGGTTCTAACCTGTTGCCT (site CGGATCCCTAG) | 0.0247
CAGATCCCTTGGGTTCTAACCTGTTGCCT (site CTGATCCCTAG) | 0.0156
CAGATGACTTGGGTTCTAACCTGTTGCCT (site CAAATTACTAG) | 0.393
CAGATGACTTGGGTTCTAACCTGTTGCCT (site CAGATGACTAG) | 1.52
CAGCCGTCTTGGGTTCTAACCTGTTGCGG (site CAATCGTCTCC) | 0.0473
CAGCCGTCTTGGGTTCTAACCTGTTGCGG (site CAGCCGTCTCC) | 1.09
CAGCGAGCTTGGGTTCTAACCTGTTGCCG (site CAACGAGCTCG) | 0.21
CAGCGAGCTTGGGTTCTAACCTGTTGCCG (site CACCGAGCTCG) | 0.117
CAGCGAGCTTGGGTTCTAACCTGTTGCCG (site CAGCGAGCTCG) | 0.737
CAGCGAGCTTGGGTTCTAACCTGTTGCCG (site CATCGAGCTCG) | 0.0483
CAGGAGACTTGGGTTCTAACCTGTTGCCT (site CAGGAGACTAG) | 1.63
CAGGAGACTTGGGTTCTAACCTGTTGCCT (site TAGGAGACTGG) | 0.0578

Sequence | recombinant barcode read abundance (log10)
CAGGCGACTTGGGTTCTAACCTGTTGCCT (site CAGGCGACTAG) | 0.0758
CAGGCGACTTGGGTTCTAACCTGTTGCCT (site CAGGCGCCTAG) | 0.556
CAGGCGACTTGGGTTCTAACCTGTTGCCT (site CAGGCGGCTAG) | 0
CAGGCGACTTGGGTTCTAACCTGTTGCCT (site CAGGCGTCTAG) | 0.394
CAGGGGACTTGGGTTCTAACCTGTTGCAC (site CAGGGGACTGT) | 2.38
CAGGGGACTTGGGTTCTAACCTGTTGCAC (site TCCAACCCTAA) | 0.0666
CAGGGTTCTTGGGTTCTAACCTGTTGCCT (site CAGGGTTCTAG) | 2.18
CAGGGTTCTTGGGTTCTAACCTGTTGCCT (site CCGGGTTCTAG) | 0.0396
CAGGGTTCTTGGGTTCTAACCTGTTGCCT (site CGGGGTTCTAG) | 0.12
CAGGGTTCTTGGGTTCTAACCTGTTGCCT (site CTGGGTTCTAG) | 0.21
CAGGTACCTTGGGTTCTAACCTGTTGCAT (site CAGGTACCTAT) | 3.14
CAGGTACCTTGGGTTCTAACCTGTTGCAT (site CAGGTACCTCT) | 0.864
CAGGTCCCTTGGGTTCTAACCTGTTGCCG (site ATACGTTCTAT) | 0.102
CAGGTCCCTTGGGTTCTAACCTGTTGCCG (site CAGGTCCCTCG) | 2.74
CAGGTGACTTGGGTTCTAACCTGTTGCGG (site CAGGTGACTCC) | 1.33
CAGGTGACTTGGGTTCTAACCTGTTGCGG (site GGATATCCTAA) | 0.0229
CAGTACGCTTGGGTTCTAACCTGTTGCCT (site CAGCAAGCTAG) | 0.31
CAGTACGCTTGGGTTCTAACCTGTTGCCT (site CAGTACGCTAG) | 0.652
CAGTATCCTTGGGTTCTAACCTGTTGCCT (site CAATATCCTAG) | 0.867
CAGTATCCTTGGGTTCTAACCTGTTGCCT (site CACTATCCTAG) | 0.0764
CAGTATCCTTGGGTTCTAACCTGTTGCCT (site CAGTATCCTAG) | 0.945
CAGTATCCTTGGGTTCTAACCTGTTGCCT (site CATTATCCTAG) | 0.096

Sequence | recombinant barcode read abundance (log10)
CAGTGCTCTTGGGTTCTAACCTGTTGCCA (site CAATGCTCTAG) | 0.648
CAGTGCTCTTGGGTTCTAACCTGTTGCCA (site CAGTGCTCTTG) | 1.52
CAGTGTCCTTGGGTTCTAACCTGTTGCCG (site CAGTGTCCTCG) | 1.45
CAGTGTCCTTGGGTTCTAACCTGTTGCCG (site GAGCGTCCTCG) | 0.122
CATAACCCTTGGGTTCTAACCTGTTGCAT (site ATCGGATCTCG) | 0.0317
CATAACCCTTGGGTTCTAACCTGTTGCAT (site CATAACCCTAT) | 1.84
CATCAGCCTTGGGTTCTAACCTGTTGCCT (site CATAAGCCTAG) | 0.206
CATCAGCCTTGGGTTCTAACCTGTTGCCT (site CATCAGCCTAG) | 0.547
CATCAGCCTTGGGTTCTAACCTGTTGCCT (site CATGAGCCTAG) | 0.306
CATCAGCCTTGGGTTCTAACCTGTTGCCT (site CATTAGCCTAG) | 0.0622
CATCCGGCTTGGGTTCTAACCTGTTGCCT (site CATCCGACTAG) | 0.317
CATCCGGCTTGGGTTCTAACCTGTTGCCT (site CATCCGCCTAG) | 0.0278
CATCCGGCTTGGGTTCTAACCTGTTGCCT (site CATCCGGCTAG) | 0.434
CATCCGGCTTGGGTTCTAACCTGTTGCCT (site CATCCGTCTAG) | 0.255
CATCCGTCTTGGGTTCTAACCTGTTGCTT (site CATCCCTCTAA) | 0.0222
CATCCGTCTTGGGTTCTAACCTGTTGCTT (site CATCCGTCTAA) | 1.24
CATCCTACTTGGGTTCTAACCTGTTGCAT (site CATCCTACTAT) | 0.665
CATCCTACTTGGGTTCTAACCTGTTGCAT (site CATCCTACTCG) | 0.0637
CATCCTACTTGGGTTCTAACCTGTTGCGG (site CATCCTACTCC) | 1.98
CATCCTACTTGGGTTCTAACCTGTTGCGG (site CATCCTCCTCA) | 0.0136
